PubChem BioAssay (NCI)
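In this assay, cells in 96-well plates receive the compound at five concentrations for 48 hours. Endpoints are linearly interpolated between the surrounding concentrations. The concentration for 50% growth inhibition is given as GI50. TGI: total growth inhibition.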

What was measured:
Assay in all cases: NCI-60 cell line screen, 48 h
SN12C renal = system: SN12C renal
OVCAR-8 ovarian = system: OVCAR-8 ovarian
SW-620 colon = system: SW-620 colon
SF-539 CNS = system: SF-539 CNS
RPMI-8226 leukemia = system: RPMI-8226 leukemia
ACHN renal = system: ACHN renal
HCT-116 colon = system: HCT-116 colon
NCI-H522 lung = system: NCI-H522 lung
CAKI-1 renal = system: CAKI-1 renal
BT-549 breast = system: BT-549 breast
HS 578T breast = system: HS 578T breast

## COc1ccc(-c2nnc3c4ccccc4sn23)cc1
SN12C renal
  TGI: > 100 µM
OVCAR-8 ovarian
  TGI: > 100 µM
SW-620 colon
  TGI: > 100 µM
SF-539 CNS
  TGI: > 100 µM
RPMI-8226 leukemia
  TGI: > 100 µM
ACHN renal
  TGI: > 100 µM
HCT-116 colon
  TGI: > 100 µM

## O=C1CNC(=O)N1
SN12C renal
  TGI: > 1120 µM
NCI-H522 lung
  TGI: > 1120 µM
CAKI-1 renal
  TGI: > 1120 µM
OVCAR-8 ovarian
  TGI: > 1120 µM
SW-620 colon
  TGI: > 1120 µM
SF-539 CNS
  TGI: > 1120 µM
RPMI-8226 leukemia
  TGI: > 1120 µM
HCT-116 colon
  TGI: > 1120 µM

## COc1ccc2c(c1)C(=O)/C(=C/c1ccccc1)C2
SN12C renal
  TGI: > 100 µM
NCI-H522 lung
  TGI: > 100 µM
CAKI-1 renal
  TGI: 60.1 µM
OVCAR-8 ovarian
  TGI: > 100 µM
BT-549 breast
  TGI: > 100 µM
HS 578T breast
  TGI: > 100 µM
RPMI-8226 leukemia
  TGI: > 100 µM

## Cc1cc(C)c(S(=O)(=O)N(CCCCCCN)OCCCON(CCCCCCN)S(=O)(=O)c2c(C)cc(C)cc2C)c(C)c1
SN12C renal
  TGI: 3.89 µM
NCI-H522 lung
  TGI: 3.27 µM
CAKI-1 renal
  TGI: 3.7 µM
OVCAR-8 ovarian
  TGI: 3.34 µM
BT-549 breast
  TGI: 3.26 µM
HS 578T breast
  TGI: 4.32 µM
SF-539 CNS
  TGI: 3.98 µM
ACHN renal
  TGI: 13.1 µM
HCT-116 colon
  TGI: 3.08 µM

## Fc1cc(C2=Nn3c(nnc3-c3cc(F)c(Cl)cc3Cl)SC2)c(Cl)cc1Cl
SN12C renal
  GI50: 18.4 µM
  TGI: 55.7 µM
NCI-H522 lung
  GI50: 24.1 µM
  TGI: > 100 µM
CAKI-1 renal
  GI50: 20.6 µM
  TGI: 60.7 µM
OVCAR-8 ovarian
  GI50: 26 µM
  TGI: 97.3 µM
HS 578T breast
  GI50: 21.9 µM
  TGI: 55 µM
SW-620 colon
  GI50: 22.6 µM
  TGI: 47.2 µM
SF-539 CNS
  GI50: 18.9 µM
  TGI: 38 µM
RPMI-8226 leukemia
  GI50: 6 µM
  TGI: 35 µM
ACHN renal
  GI50: 26.6 µM
  TGI: 90.9 µM

## CC1(C)CCCC2(C)[C@@H]1CC[C@]13C[C@](C)(CC[C@@H]21)[C@@H]3CO (some centres undefined)
SN12C renal
  TGI: > 100 µM
NCI-H522 lung
  TGI: > 100 µM
CAKI-1 renal
  TGI: > 100 µM
SW-620 colon
  TGI: > 100 µM
SF-539 CNS
  TGI: > 100 µM
RPMI-8226 leukemia
  TGI: > 100 µM
ACHN renal
  TGI: > 100 µM
HCT-116 colon
  TGI: > 100 µM

## O=c1n(Cc2ccccc2)c2ccccc2n1CC1CS1 (centres undefined)
SN12C renal
  TGI: > 100 µM
NCI-H522 lung
  TGI: > 100 µM
CAKI-1 renal
  TGI: > 100 µM
OVCAR-8 ovarian
  TGI: > 100 µM
SW-620 colon
  TGI: > 100 µM
SF-539 CNS
  TGI: > 100 µM
RPMI-8226 leukemia
  TGI: > 100 µM
ACHN renal
  TGI: > 100 µM
HCT-116 colon
  TGI: > 100 µM

## COc1cc(CN(C)N2C(=O)c3cccc4cc([N+](=O)[O-])cc(c34)C2=O)cc(OC)c1OC
SN12C renal
  TGI: > 100 µM
NCI-H522 lung
  TGI: > 100 µM
CAKI-1 renal
  TGI: > 100 µM
OVCAR-8 ovarian
  TGI: > 100 µM
BT-549 breast
  TGI: > 100 µM
HS 578T breast
  TGI: > 100 µM
RPMI-8226 leukemia
  TGI: > 100 µM

## CCOC(=O)c1csc(NC(=O)CCN2CCOCC2)n1
CAKI-1 renal
  TGI: > 100 µM
OVCAR-8 ovarian
  TGI: 87.2 µM
SW-620 colon
  TGI: > 100 µM
SF-539 CNS
  TGI: > 100 µM
RPMI-8226 leukemia
  TGI: > 100 µM
ACHN renal
  TGI: > 100 µM
